Laboratory results taken from US8318196B2, “Formulations comprising a vitamin and the use thereof to make fortified feed and personal care formulations” (Akzo Nobel N.V., priority 2006, dated 2012).

Test: Transmission of aqueous vitamin / castor oil ethoxylate formulations (Turbiscan LAb)
Type: physicochemical
Conditions: ingredients preheated to 50° C.
Description: Castor oil ethoxylates were evaluated in formulations with various vitamins by mixing 4 g of a vitamin with 4 g of the castor oil ethoxylate and subsequently adding 28 g water. All ingredients were preheated to 50° C. The transmission (light passing the through the emulsion) was measured using standard Turbiscan™ LAb equipment ex Formulaction. In the evaluation of the samples the highest transmission is looked for, since it indicates a clearer (and better) formulation.

[1] = Comparative Example B: 4 g vitamin + 4 g CO36EO + 28 g water, unit assumed
[2] = Example 1: 4 g vitamin + 4 g CO20EO + 28 g water, higher = clearer, better, unit assumed

Compound	transmission (light passing through the emulsion) (Comparative Example A: 4 g vitamin + 4 g CO28EO + 28 g water, unit assumed)	transmission (light passing through the emulsion) [1]	transmission (light passing through the emulsion) [2]	transmission (light passing through the emulsion) (Comparative Example A: 4 g vitamin + 4 g CO28EO + 28 g water)
C=C1CC[C@H](O)C/C1=C/C=C1\CCC[C@]2(C)[C@@H]([C@H](C)CCCC(C)C)CC[C@@H]12 [Vit D3]	64.4%	2%	56.7%	–
CC(=O)OC/C=C(C)/C=C/C=C(C)/C=C/C1=C(C)CCCC1(C)C [Vit A acetate]	–	0%	2.2%	Not stable
